Data published in patent publication US10548313B2, “Acetyl-CoA carboxylase modulators” (Monsanto Technology LLC, priority 2013, dated 2020).
Several values for one entry are separate records, joined by “and”; a condition that tells them apart may be missing. Identical values can stand only once.

The molecules below were run against Ustilago maydis acetyl CoA carboxylase (ACCase) (Mycosarcoma maydis (Ustilago maydis), UniProt A0A0D1DYD5) (assay: ACCase enzymatic assay (coupled PK/LDH, NADH OD340)). Conditions: Table 1A; values marked a are a result of two or more experiments; read-out: ACCase Inhibitory Activity IC50.
Chain of Ustilago maydis acetyl CoA carboxylase (ACCase) (A0A0D1DYD5 1-2185): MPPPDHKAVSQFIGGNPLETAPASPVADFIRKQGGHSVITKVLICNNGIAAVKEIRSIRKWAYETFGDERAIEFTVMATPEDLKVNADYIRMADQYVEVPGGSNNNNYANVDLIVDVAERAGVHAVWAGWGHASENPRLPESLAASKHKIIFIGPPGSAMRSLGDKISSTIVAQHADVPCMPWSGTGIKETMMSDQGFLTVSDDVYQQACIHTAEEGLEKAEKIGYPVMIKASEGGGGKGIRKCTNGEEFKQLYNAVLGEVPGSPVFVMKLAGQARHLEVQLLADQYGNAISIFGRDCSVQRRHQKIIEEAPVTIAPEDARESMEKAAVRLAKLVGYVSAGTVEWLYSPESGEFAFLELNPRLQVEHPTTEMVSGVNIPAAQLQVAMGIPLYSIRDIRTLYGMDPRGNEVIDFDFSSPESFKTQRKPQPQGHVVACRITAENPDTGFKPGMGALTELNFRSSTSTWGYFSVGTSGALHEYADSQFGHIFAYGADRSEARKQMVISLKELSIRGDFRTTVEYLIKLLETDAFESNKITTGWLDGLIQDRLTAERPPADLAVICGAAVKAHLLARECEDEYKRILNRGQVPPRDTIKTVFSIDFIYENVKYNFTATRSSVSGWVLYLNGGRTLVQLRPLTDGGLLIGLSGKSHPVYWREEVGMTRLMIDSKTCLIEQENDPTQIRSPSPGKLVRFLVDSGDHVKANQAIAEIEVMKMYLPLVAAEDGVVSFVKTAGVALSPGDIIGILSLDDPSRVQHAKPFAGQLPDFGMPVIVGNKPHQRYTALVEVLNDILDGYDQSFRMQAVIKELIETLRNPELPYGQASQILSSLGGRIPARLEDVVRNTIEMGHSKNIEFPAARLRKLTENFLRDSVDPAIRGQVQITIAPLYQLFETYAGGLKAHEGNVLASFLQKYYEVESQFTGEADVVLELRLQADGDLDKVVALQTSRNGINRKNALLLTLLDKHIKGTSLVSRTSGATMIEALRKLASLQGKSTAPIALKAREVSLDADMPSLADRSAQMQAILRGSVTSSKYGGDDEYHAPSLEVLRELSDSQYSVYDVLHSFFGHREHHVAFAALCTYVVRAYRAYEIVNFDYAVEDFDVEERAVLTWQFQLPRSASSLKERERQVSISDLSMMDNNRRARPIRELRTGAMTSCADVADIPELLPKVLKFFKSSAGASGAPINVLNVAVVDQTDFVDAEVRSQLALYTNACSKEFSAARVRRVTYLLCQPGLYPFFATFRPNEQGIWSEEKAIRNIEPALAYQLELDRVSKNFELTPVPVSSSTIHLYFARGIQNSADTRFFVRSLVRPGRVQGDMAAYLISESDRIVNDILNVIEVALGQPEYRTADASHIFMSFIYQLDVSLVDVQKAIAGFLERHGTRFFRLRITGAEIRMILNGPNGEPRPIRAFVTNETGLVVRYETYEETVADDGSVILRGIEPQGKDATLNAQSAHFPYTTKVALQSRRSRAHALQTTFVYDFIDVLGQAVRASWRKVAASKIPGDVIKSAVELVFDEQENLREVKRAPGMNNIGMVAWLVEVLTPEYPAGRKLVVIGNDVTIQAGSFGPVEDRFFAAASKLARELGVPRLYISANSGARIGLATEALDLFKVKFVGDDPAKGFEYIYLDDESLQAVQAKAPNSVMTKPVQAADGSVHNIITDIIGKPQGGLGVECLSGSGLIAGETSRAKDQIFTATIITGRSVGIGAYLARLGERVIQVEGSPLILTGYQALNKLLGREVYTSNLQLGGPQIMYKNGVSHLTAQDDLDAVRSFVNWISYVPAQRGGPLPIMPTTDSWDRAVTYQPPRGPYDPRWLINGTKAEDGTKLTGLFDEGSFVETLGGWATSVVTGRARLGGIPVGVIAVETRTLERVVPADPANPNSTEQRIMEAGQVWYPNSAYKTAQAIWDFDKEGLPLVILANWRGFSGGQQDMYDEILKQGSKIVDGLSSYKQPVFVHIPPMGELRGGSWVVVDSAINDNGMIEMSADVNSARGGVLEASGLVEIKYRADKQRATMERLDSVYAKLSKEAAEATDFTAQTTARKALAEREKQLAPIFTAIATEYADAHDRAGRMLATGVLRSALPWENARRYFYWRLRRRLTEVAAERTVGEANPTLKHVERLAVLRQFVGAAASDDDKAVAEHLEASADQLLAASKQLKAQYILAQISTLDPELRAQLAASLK
Format: biochemical
Experimental: Ustilago maydis acetyl CoA carboxylase (ACCase) was cloned, expressed, and purified as described (Weatherly et al, Biochem. J., 2004) and the test compounds were tested in a 96-well plate format. Primary in vitro screening consisted of obtaining dose response data at 100, 33, 10, and 1 μM inhibitor. Actives in the primary screen were re-tested to establish IC50 values.
Direct detection of the conversion of acetyl CoA to malonyl CoA by ACCase was not feasible, but during this process ATP is converted to ADP which allowed for detection through a standard reaction coupling with ADP recycling to the oxidation of NADH. Thus, ACCase activity was measured via kinetic OD340 measurements of the conversion of NADH to NAD in a coupled reaction involving the conversion of phosphoenolpyruvate (PEP) to lactate.
The complete 200 ul reaction mixture contained 52.5 mM HEPES (pH8), 2.625 mM MgCl2, 1 mM ATP, 0.525 mM DTT, 11 mM NaHCO3, 1% DMSO with or without inhibitor, 1× pyruvate kinase/lactate dehydrogenase (PK/LDH), 0.3 mM NADH, 0.5 mM PEP, and 5 μg ACCase. The reactions were incubated at 30° C. for 10 minutes and then initiated by the addition of 0.33 mM acetyl CoA. The initiated reactions were read immediately via plate reader at OD340 and kinetic readings were acquired every 20 s for 15 minutes while keeping the temperature at 30° C.
A slope of the kinetic curve was determined by using the 2 to 7 minute data which was then calculated as percent inhibition relative to the no inhibitor control.
The primary screens were conducted in duplicate and the IC50's conducted in triplicate. Averages were reported along with standard deviation calculation to generate error bars.
Each plate contained its own controls and consisted of a DMSO only control, 5-fold titration series of soraphen from 2 μM to 3.2 nM, and an ADP coupled reaction control.
For “2-((3-cyano-4-(thiophen-2-yl)-5,6,7,8-tetrahydroquinolin-2-yl)oxy)-2-phenylacetic acid [Formula Ia-xxvii]”, the IC50 was 249 nM.
`COc1ccc(-c2cc(-c3cccs3)nc(SC(CO)c3ccccc3)c2C#N)cc1` (centres unmarked) [Formula IIb-i, 2-((2-hydroxy-1-phenylethyl)thio)-4-(4-methoxyphenyl)-6-(thiophen-2-yl)nicotinonitrile] gave an IC50 of 625 nM.
Molecule `N#Cc1c(SC(CO)c2ccccc2)nc2c(c1-c1cccs1)CCCC2` (centres unmarked) [Formula IIb-ii, 2-((2-hydroxy-1-phenylethyl)thio)-4-(thiophen-2-yl)-5,6,7,8-tetrahydroquinoline-3-carbonitrile] has an IC50 of 4090 nM.
Work on `N#Cc1c(-c2ccco2)cc(-c2cccs2)nc1SC(CO)c1ccccc1` (centres unmarked) [Formula IIb-iv, 4-(furan-2-yl)-2-((2-hydroxy-1-phenylethyl)thio)-6-(thiophen-2-yl)nicotinonitrile] yielded an IC50 of 2180 nM.
`CN1CCCc2c1nc(SC(C(=O)O)c1ccccc1)c(C#N)c2-c1cccs1` (centres unmarked) [Formula Ia-vi, 2-((3-cyano-8-methyl-4-(thiophen-2-yl)-5,6,7,8-tetrahydro-1,8-naphthyridin-2-yl)thio)-2-phenylacetic acid] gave an IC50 of 3550 nM.
Molecule `N#Cc1c(C(F)(F)F)cc(-c2ccco2)nc1SC(C(=O)O)c1ccccc1` (centres unmarked) [Formula Ia-xi, 2-((3-cyano-6-(furan-2-yl)-4-(trifluoromethyl)pyridin-2-yl)thio)-2-phenylacetic acid] has an IC50 of 5430 nM.
Molecule `COc1ccc(-c2cc(SC(C(=O)O)c3ccccc3)nc(-c3cccs3)c2)cc1` (centres unmarked) [Formula Ia-xix, 2-((4-(4-methoxyphenyl)-6-(thiophen-2-yl)pyridin-2-yl)thio)-2-phenylacetic acid] has an IC50 of 9060 nM.
Work on `Cc1cc(C(F)(F)F)c(C#N)c(SC(C(=O)O)c2ccccc2)n1` (centres unmarked) [Formula Ia-xvi, 2-((3-cyano-6-methyl-4-(trifluoromethyl)pyridin-2-yl)thio)-2-phenylacetic acid] yielded an IC50 of 7730 nM.
For `N#Cc1c(SC(C(=O)O)c2ccccc2)nc2c(c1-c1ccccc1)CCCC2` (centres unmarked) [Formula Ia-xvii, 2-((3-cyano-4-phenyl-5,6,7,8-tetrahydroquinolin-2-yl)thio)-2-phenylacetic acid], the IC50 was 906 nM.
Molecule `COc1ccc(-c2cc(-c3ccco3)nc(SC(C(=O)O)c3ccccc3)c2C#N)cc1` (centres unmarked) [Formula Ia-xx, 2-((3-cyano-6-(furan-2-yl)-4-(4-methoxyphenyl)pyridin-2-yl)thio)-2-phenylacetic acid] has an IC50 of 345 nM.
`Cc1ccc(-c2cc(-c3cccs3)nc(SC(C(=O)O)c3ccccc3)c2C#N)cc1` (centres unmarked) [Formula Ia-xxi, 2-((3-cyano-6-(thiophen-2-yl)-4-(p-tolyl)pyridin-2-yl)thio)-2-phenylacetic acid] showed an IC50 of 353 nM.
In the case of `N#Cc1c(-c2ccc(F)cc2)cc(-c2cccs2)nc1SC(C(=O)O)c1ccccc1` (centres unmarked) [Formula Ia-xxii, 2-((3-cyano-4-(4-fluorophenyl)-6-(thiophen-2-yl)pyridin-2-yl)thio)-2-phenylacetic acid], the IC50 is reported as 563 nM.
`N#Cc1c(-c2ccc(Br)cc2)cc(-c2cccs2)nc1SC(C(=O)O)c1ccccc1` (centres unmarked) [Formula Ia-xxiii, 2-((4-(4-bromophenyl)-3-cyano-6-(thiophen-2-yl)pyridin-2-yl)thio)-2-phenylacetic acid] showed an IC50 of 212 nM.
With `N#Cc1c(-c2cccs2)cc(-c2ccco2)nc1SC(C(=O)O)c1ccccc1` (centres unmarked) [Formula Ia-xxiv, 2-((3-cyano-6-(furan-2-yl)-4-(thiophen-2-yl)pyridin-2-yl)thio)-2-phenylacetic acid] the IC50 was 958 nM.
`CCC(Sc1nc(-c2cccs2)cc(-c2ccc(OC)cc2)c1C#N)C(=O)O` (centres unmarked) [Formula Ia-xxix, 2-((3-cyano-4-(4-methoxyphenyl)-6-(thiophen-2-yl)pyridin-2-yl)thio)butanoic acid] was tested, and the IC50 was 113 nM.
`N#Cc1c(-c2ccco2)cc(-c2ccco2)nc1SC(C(=O)O)c1ccccc1` (centres unmarked) [Formula Ia-xxv, 2-((3-cyano-4,6-di(furan-2-yl)pyridin-2-yl)thio)-2-phenylacetic acid] was tested, and the IC50 was 4040 nM.
`COc1ccc(-c2c(C#N)c(SC(C(=O)O)c3ccccc3)nc3c2CCCC3)cc1` (centres unmarked) [Formula Ia-xxvi, 2-((3-cyano-4-(4-methoxyphenyl)-5,6,7,8-tetrahydroquinolin-2-yl)thio)-2-phenylacetic acid] was tested, and the IC50 was 560 nM.
In the case of `N#Cc1c(SC(C(N)=O)c2ccccc2)nc2c(c1-c1cccs1)CCCC2` (centres unmarked) [Formula Ib-i, 2-((3-cyano-4-(thiophen-2-yl)-5,6,7,8-tetrahydroquinolin-2-yl)thio)-2-phenylacetamide], the IC50 is reported as 712 nM.
Work on `COc1ccc(-c2cc(-c3cccs3)nc(SC(C(N)=O)c3ccccc3)c2C#N)cc1` (centres unmarked) [Formula Ib-ii, 2-((3-cyano-4-(4-methoxyphenyl)-6-(thiophen-2-yl)pyridin-2-yl)thio)-2-phenylacetamide] yielded an IC50 of over 33000 nM.
For `COc1ccc(-c2cc(-c3cccs3)nc(SC(C(=O)NO)c3ccccc3)c2C#N)cc1` (centres unmarked) [Formula Ib-iii, 2-((3-cyano-4-(4-methoxyphenyl)-6-(thiophen-2-yl)pyridin-2-yl)thio)-N-hydroxy-2-phenylacetamide], the IC50 was 882 nM.
Molecule `CO[C@H]1CCCC[C@@H](c2ccccc2)OC(=O)[C@@H](C)[C@@]2(O)O[C@H]([C@@H](C)[C@H](O)[C@H]2OC)[C@@H](C)/C=C/[C@H]1OC` [Soraphen, reference compound] has an IC50 of 45.8 nM.

Same assay, conditions: Table 1B; racemate vs single enantiomers; read-out: ACCase Inhibitory Activity of Racemic Mixtures and Single Enantiomers IC50
For `N#Cc1c(C(F)(F)F)cc(-c2cccs2)nc1SC(C(=O)O)c1ccccc1` (single isomer, unassigned) [Formula Ia-ii-e1, 2-((3-cyano-6-(thiophen-2-yl)-4-(trifluoromethyl)-pyridin-2-yl)thio)-2-phenylacetic acid], the IC50 was 12900 nM.
Work on `N#Cc1c(-c2cccs2)cc(-c2cccs2)nc1SC(C(=O)O)c1ccccc1` (single isomer, unassigned) [Formula Ia-iii-e1, 2-((3-cyano-4,6-di(thiophen-2-yl)pyridin-2-yl)thio)-2-phenylacetic acid] yielded an IC50 of 547 nM.
For `N#Cc1c(-c2cccs2)cc(-c2cccs2)nc1SC(C(=O)O)c1ccccc1` (single isomer, unassigned) [Formula Ia-iii-e2, 2-((3-cyano-4,6-di(thiophen-2-yl)pyridin-2-yl)thio)-2-phenylacetic acid], the IC50 was 2390 nM.
`COc1ccc(-c2cc(-c3cccs3)nc(SC(C(=O)O)c3ccccc3)c2C#N)cc1` (single isomer, unassigned) [Formula Ia-xiv-e1, 2-((3-cyano-4-(4-methoxyphenyl)-6-(thiophen-2-yl)pyridin-2-yl)thio)-2-phenylacetic acid] was tested, and the IC50 was 115 nM and 129 nM.
In the case of `COc1ccc(-c2cc(-c3cccs3)nc(SC(C(=O)O)c3ccccc3)c2C#N)cc1` (single isomer, unassigned) [Formula Ia-xiv-e2, 2-((3-cyano-4-(4-methoxyphenyl)-6-(thiophen-2-yl)pyridin-2-yl)thio)-2-phenylacetic acid], the IC50 is reported as 440 nM and 523 nM.

Each molecule was assayed on Diplodia maydis (assay: Fungal growth inhibition assay, Diplodia maydis). Conditions: 2 ppm, 48 hours; read-out: D. maydis % growth inhibition at 48 hours.
Format: cell-based
Experimental: Spores were isolated from previously sub-cultured plates of Botrytis cinerea, Phytophthora capsici, Fusarium moniliforme, Fusarium viguliforme, Collectotrichum graminicola, and Diplodia maydis. All spores were filtered and collected in a sterile glass bowl to isolate the spores from the mycelia. The isolation and sub-culture plate condition for each pathogen is described below.
Spore isolation for D. maydis: A 3-4 week old PDA (pre-mix) plate was removed from 26° C. incubator with a light/dark 12 hour cycle and the mycelia were treated with 6-7 ml of sterile distilled water, scraped into a sterile petri dish, and smashed to open the pycnidia. The spores were then collected in a sterile filter bowl containing a fluted piece of filter paper and poured into a conical tube.
After spore isolation, pathogen spores were counted on a hemocytometer to calculate the spores/ml. In 17% V8 liquid media containing 3 g/L CaCO3, isolated spores were diluted to individual concentrations based on the growth curves at 48 hours of each pathogen. The spore concentrations for each pathogen were as follows: B. cinerea—10,000 sp/ml; P. capsici—300 sp/ml; F. monliforme—500 sp/ml; F. virguliforme—500 sp/ml; C. graminicola—3,000 sp/ml; and D. maydis—3,000 sp/ml.
Chemistry stocks were dissolved in DMSO at 2.5 mg/ml. Chemistry was diluted in a 96-well stock plate in five-fold dilutions to obtain a final concentration of 50, 10, and 2 ppm in vitro. The final concentration of the positive control after the five-fold dilutions was as follows: soraphen—0.5, 0.1, and 0.02 ppm. Negative controls on each plate included 2% DMSO, water containing spores and media, and a blank for background subtraction.
In a 96-well plate the spore solution, chemistries, and controls were combined to make the final solution concentrations mentioned above. Upon addition of the chemistry, an OD600 reading was done to assess chemical precipitation. The 96-well plates were incubated in plastic tubs containing wet paper towels under the following conditions, 25° C. in the dark for P. capsici and B. cinerea or 26° C. with light/dark cycle for C. graminicola, D. maydis, F. virguliforme, F. monliforme. Plate readings were repeated at 24 and 48 hrs. Visual ratings were performed at 24 and 48 hrs to check for precipitation and confirm efficacy. Visual and OD600 ratings of the chemistry at 48 hours were compared to the 2% DMSO control to determine the percent of pathogen growth inhibition.
`N#Cc1c(C(F)(F)F)cc(-c2ccco2)nc1SC(C(=O)O)c1ccccc1` (centres unmarked) [Formula Ia-xi, 2-((3-cyano-6-(furan-2-yl)-4-(trifluoromethyl)pyridin-2-yl)thio)-2-phenylacetic acid] gave an inhibition at 2 ppm of 38%.

Same assay, conditions: 10 ppm, 48 hours; read-out: D. maydis % growth inhibition at 48 hours
Molecule `N#Cc1c(C(F)(F)F)cc(-c2ccco2)nc1SC(C(=O)O)c1ccccc1` (centres unmarked) [Formula Ia-xi, 2-((3-cyano-6-(furan-2-yl)-4-(trifluoromethyl)pyridin-2-yl)thio)-2-phenylacetic acid] has an inhibition at 10 ppm of 54%.

Same assay, conditions: 50 ppm, 48 hours; read-out: D. maydis % growth inhibition at 48 hours
For `N#Cc1c(C(F)(F)F)cc(-c2ccco2)nc1SC(C(=O)O)c1ccccc1` (centres unmarked) [Formula Ia-xi, 2-((3-cyano-6-(furan-2-yl)-4-(trifluoromethyl)pyridin-2-yl)thio)-2-phenylacetic acid], the inhibition at 50 ppm was 82%.
